The test system of assay [1] is MMQ cells. Kind of assay: cAMP levels in the MMQ cells. It is filed as cell-based, rat. The following applies: for effect on the dopaminergic inhibition of stimulated cAMP: pertussis toxin as pre-treatment of the cells. The text has this: Further studies included measurement of the cAMP levels in the MMQ cells.
Background: cAMP levels reflect the balance of adenylyl cyclase and phosphodiesterase activity.

In assay [2] the test system is MMQ cells. Kind of assay: 45Ca2+ uptake/efflux in MMQ (floater) cells. Format: cell-based, rat.
Protocol: The MMQ cell line was derived from the pituitary tumor 7315a, a cell line that secretes both prolactin and adrenocorticotrophin (ACTH). The MMQ cell line was obtained by cutting a 7315a tumor into small pieces and then dispersing the pieces into a population of single cells by means of incubating tumor pieces with collagenase. These cells were incubated in tissue culture flasks containing RPMI1640, 5% NHS, 5% FCS. […] The floater cells, which we have designated MMQ, were small granular and irregularly shaped in contrast to the cells that adhered to the flasks.
The test system of assay [3] is MMQ cells.
Description: The non-adherent cell has been designated MMQ.
The clonal cell line MMQ, was derived from the non-adherent cells which secrete only prolactin and no detectable amounts of ACTH or any other pituitary hormones.
Assay [4] has as its system adherent cells of pituitary tumor 7315a.
Description: This isolation involved the use of the solid tumor which was dispersed with collagenase and cultured in RPMI-1640 containing normal horse and calf serum. As previously mentioned, one population is adherent to plastic-ware and the other is non-adherent.

No end group written: not given here.

As to `O=C(CCCN1CCC(O)(c2ccc(Cl)cc2)CC1)c1ccc(F)cc1` [Haloperidol], in assay [1], the “effect on the dopaminergic inhibition of stimulated cAMP” value is “blocked the dopaminergic effects”. For `C[C@H](N)C(=O)NCC(=O)N[C@H]1CSSC[C@@H](C(=O)O)NC(=O)[C@H](CO)NC(=O)[C@H]([C@@H](C)O)NC(=O)[C@H](Cc2ccccc2)NC(=O)[C@H]([C@@H](C)O)NC(=O)[C@H](CCCCN)NC(=O)[C@H](Cc2c[nH]c3ccccc23)NC(=O)[C@H](Cc2ccccc2)NC(=O)[C@H](Cc2ccccc2)NC(=O)[C@H](CC(N)=O)NC(=O)[C@H](CCCCN)NC1=O` [Somatostatin], in assay [1] (SRIF 100 nM), the “attenuation of forskolin and VIP-stimulated cAMP generation” value stood at 30%. In the case of `NCCc1ccc(O)c(O)c1` [dopamine], the “effect on maitotoxin-induced efflux of 45Ca2+” value in assay [2] (addition of dopamine, MMQ cells) was “blocked”. In assay [1] (Rattus norvegicus, 1 μM of dopamine, read-out: attenuation of forskolin and VIP-stimulated cAMP generation), the inhibition at 1 µM was determined as 50%. The “effect on VIP-, forskolin- and choleratoxin-increased cellular cAMP levels” value in assay [1] (dopamine 50-1000 nM) is “inhibited each response in a concentration-dependent manner”. Besides, the “effect of dopamine on prolactin-release after long-term culture” value in assay [3] (MMQ cells after more than a year in culture) is “has not been altered”. For the same compound, the “inhibition of maitotoxin-induced prolactin release” value in assay [3] (clonal MMQ cells) is listed as 50-80%. Besides, the “effect on prolactin release stimulated by maitotoxin” value is “inhibits prolactin release” in assay [3] (non-adherent cells) and “not in the adherent ones” in assay [4]. Regarding `C=C[C@@]1(C)CC(=O)[C@]2(O)[C@@]3(C)[C@@H](O)CCC(C)(C)[C@@H]3[C@H](O)[C@H](OC(C)=O)[C@@]2(C)O1` [forskolin], the “cellular cAMP levels” value in assay [1] is given as “increased”. In the case of `C=CC[C@H](C)[C@H](C)C[C@@H](O)[C@H](O)[C@@H]1CC[C@@]2(C)O[C@@]3(C)C[C@@]4(C)O[C@H]5/C=C\C[C@H]6O[C@H]7C[C@H]8O[C@H]9C[C@@]%10(C)O[C@@](C)([C@@H]%11CC[C@H]%12O[C@@]%13(C)C[C@H]%14O[C@@]%15(C)C[C@H]%16O[C@@]%17(C)C[C@@H](O)[C@H]([C@@H]%18O[C@H]%19[C@H](O)[C@@H](O)[C@H](C[C@H](O)C[C@@H](O)[C@@H]%20O[C@H]%21[C@H](O)[C@@H](O)[C@H]([C@@H]%22O[C@@H]%23[C@H](O)[C@H]%24O[C@H]%25C[C@H]%26O[C@@H](C[C@H](O)[C@@H](O)[C@H]%27O[C@H]%28[C@H](O)[C@H]%29O[C@H]%30C[C@H]%31O[C@H]%32[C@@H](O)[C@@H](O)[C@H]([C@H](C)[C@H](O)[C@H](C)CC[C@H](OS(=O)(=O)O)[C@H](O)[C@H](C)C[C@@H](O)C(=C)/C(C)=C/CO)O[C@@H]%32[C@H](O)C[C@]%31(C)O[C@@H]%30C[C@]%29(C)O[C@@H]%28C[C@H]%27O)[C@H](OS(=O)(=O)O)[C@H](O)[C@@H]%26O[C@@H]%25C[C@@H]%24O[C@H]%23[C@H](O)[C@H]%22O)O[C@H]%21C[C@H]%20O)O[C@H]%19C[C@H]%18O)O[C@@H]%17[C@H](O)[C@]%16(C)O[C@@H]%15CC[C@]%14(C)O[C@@H]%13C[C@@H]%12O%11)[C@H](O)C[C@@H]%10O[C@]9(C)CC[C@]8(C)O[C@]7(C)C[C@@H]6O[C@@H]5C[C@@H]4O[C@@H]3C[C@@H]2O1` [maitotoxin], in assay [2] (MMQ floater cells loaded with 45Ca2+), the “response of MMQ cells to maitotoxin (45Ca2+)” value was “modest response”.

Consider “Vasoactive intestinal peptide (HSDAVFTDNYTRLRKQMAVKKYLNSILN; ends and bridges not checked; UniProt P01282 125-152, looked up) [peptide that increases cellular cAMP levels]”, for which the “cellular cAMP levels” value in assay [1] is “increased”. On the same count and under the same terms, the same measure for choleratoxin: “increased”. For the compound pertussis toxin, the “effect on the dopaminergic inhibition of stimulated cAMP” value in assay [1] is on record as “blocked the dopaminergic effects”.

(Values after patent US5510260A, “Prolactin secreting cell line and method of obtaining the same” (Unversity of Virginia Patent Foundation, priority 1993, dated 1996).)
